Reference: patent USRE39197E1, “Cell adhesion-inhibiting antiinflammatory and immune-suppressive compounds” (Abbott Laboratories, priority 1998, dated 2006)

Tests used:
[1] = molecular target: T1, interaction between the integrin LFA-1 and its adhesion partner ICAM-1 (Homo sapiens, UniProt P20701); experiment: ICAM-1/LFA-1 Biochemical Interaction Assay; assay type: binding; conditions: 4 μM compound; recombinant LFA-1, biotinylated ICAM-1/Ig
T1 construct: Recombinant LFA-1 (100 μL of 0.7 μg/ml mL, ICOS Corporation) in D-PBS; purchased ICOS Corporation
T1 sequence (P20701 26-1170): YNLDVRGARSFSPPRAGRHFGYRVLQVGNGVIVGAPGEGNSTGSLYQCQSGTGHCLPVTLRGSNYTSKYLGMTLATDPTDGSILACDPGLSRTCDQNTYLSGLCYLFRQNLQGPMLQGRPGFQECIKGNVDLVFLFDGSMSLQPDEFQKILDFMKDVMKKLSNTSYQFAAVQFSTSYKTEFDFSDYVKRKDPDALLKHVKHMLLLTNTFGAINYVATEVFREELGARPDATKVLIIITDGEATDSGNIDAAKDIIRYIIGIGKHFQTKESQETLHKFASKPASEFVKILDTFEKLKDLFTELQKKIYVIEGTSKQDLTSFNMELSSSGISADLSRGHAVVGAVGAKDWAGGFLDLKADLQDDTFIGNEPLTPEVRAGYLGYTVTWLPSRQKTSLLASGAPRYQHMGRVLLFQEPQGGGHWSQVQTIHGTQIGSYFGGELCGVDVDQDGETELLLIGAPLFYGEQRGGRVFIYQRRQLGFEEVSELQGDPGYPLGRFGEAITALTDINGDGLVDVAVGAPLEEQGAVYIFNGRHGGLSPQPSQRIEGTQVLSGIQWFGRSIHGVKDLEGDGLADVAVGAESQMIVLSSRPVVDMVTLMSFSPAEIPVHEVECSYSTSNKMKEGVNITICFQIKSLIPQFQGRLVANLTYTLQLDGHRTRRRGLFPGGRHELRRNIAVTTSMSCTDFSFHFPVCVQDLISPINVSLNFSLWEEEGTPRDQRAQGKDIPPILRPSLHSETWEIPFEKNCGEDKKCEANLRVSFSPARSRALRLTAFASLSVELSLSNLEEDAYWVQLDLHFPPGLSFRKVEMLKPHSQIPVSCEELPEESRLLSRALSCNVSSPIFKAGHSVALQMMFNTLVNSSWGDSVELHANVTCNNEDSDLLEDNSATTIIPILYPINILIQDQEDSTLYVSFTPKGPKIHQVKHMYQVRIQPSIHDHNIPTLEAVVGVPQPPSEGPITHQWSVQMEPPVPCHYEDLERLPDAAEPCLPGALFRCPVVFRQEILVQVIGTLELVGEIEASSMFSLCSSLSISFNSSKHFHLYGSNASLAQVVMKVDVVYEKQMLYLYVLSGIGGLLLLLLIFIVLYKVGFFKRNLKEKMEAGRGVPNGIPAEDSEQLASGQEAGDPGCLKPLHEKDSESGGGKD
T1 sequence (P05107 23-769 partner): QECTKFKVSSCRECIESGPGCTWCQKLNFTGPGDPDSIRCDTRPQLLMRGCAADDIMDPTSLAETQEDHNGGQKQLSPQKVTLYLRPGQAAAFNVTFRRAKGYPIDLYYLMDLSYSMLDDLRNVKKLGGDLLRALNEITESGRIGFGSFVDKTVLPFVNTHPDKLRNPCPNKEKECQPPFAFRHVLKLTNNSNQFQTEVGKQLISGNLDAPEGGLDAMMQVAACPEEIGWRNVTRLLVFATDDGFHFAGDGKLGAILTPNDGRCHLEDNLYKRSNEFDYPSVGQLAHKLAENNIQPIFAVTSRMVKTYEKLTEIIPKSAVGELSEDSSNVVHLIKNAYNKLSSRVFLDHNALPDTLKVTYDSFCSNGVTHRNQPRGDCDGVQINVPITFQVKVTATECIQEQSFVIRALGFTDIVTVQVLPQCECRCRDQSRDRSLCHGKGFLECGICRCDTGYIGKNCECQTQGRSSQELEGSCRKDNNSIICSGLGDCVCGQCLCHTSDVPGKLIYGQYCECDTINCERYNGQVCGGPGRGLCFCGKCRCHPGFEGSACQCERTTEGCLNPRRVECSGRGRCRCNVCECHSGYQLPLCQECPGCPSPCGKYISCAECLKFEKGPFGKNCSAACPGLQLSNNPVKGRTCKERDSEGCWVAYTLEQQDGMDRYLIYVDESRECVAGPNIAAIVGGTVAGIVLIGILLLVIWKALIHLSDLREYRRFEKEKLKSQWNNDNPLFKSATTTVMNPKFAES
Method: Compounds that antagonize the interaction between ICAM-1 and LFA-1 can be identified, and their activities quantitated, using both biochemical and cell-based adhesion assays. A primary biochemical assay measures the ability of the compound in question to block the interaction between the integrin LFA-1 and its adhesion partner ICAM-1, as described below:
ICAM-1/LFA-1 Biochemical Interaction Assay
In the biochemical assay, 100 μL of anti-LFA-1 antibody (ICOS Corporation) at a concentration of 5 μg/ml mL in Dulbecco's phosphate-buffered saaline (D-PBS) is used to coat wells of a 96-well microtiter plate overnight at 4° C. The wells are were then washed twice with wash buffer (D-PBS w/o Ca^++ or Mg^++, 0.05% Tween 20) and blocked by addition of 200 μL of D-PBS, 5% fish skin gelatin. Recombinant LFA-1 (100 μL of 0.7 μg/ml mL, ICOS Corporation) in D-PBS is was then added to each well. Incubation continues continued for 1 hour at room temperature and the wells are were washed twice with wash buffer. Serial dilutions of compounds being assayed as ICAM-1/LFA-1 antagonists, were prepared as 10 mM stock solutions in dimethyl sulfoxide (DMSO), are were diluted in D-PBS, 2 mM MgCl2, 1% fish skin gelatin and 50 μL of each dilution was added to duplicate wells. This is was followed by the addition of 50 μL of 0.8 μg/ml mL biotinylated recombinant ICAM-1/Ig (ICOS Corporation) to the wells and the plates are were incubated at room temperature for 1 hour. The wells are were then washed twice with wash buffer and 100 μL of Europium-labeled Streptavidin (Wallac Oy) diluted 1:100 in Delfia assay buffer (Wallac Oy), are was then added to the wells. Incubation proceeds proceeded for 1 hour at room temperature. The wells are were washed eight times with wash buffer and 100 μL of enhancement solution (Wallac Oy, cat. No. 1244-105) are was added to each well. Incubation proceeds proceeded for 5 minutes with constant mixing. Time-resolved fluorimetry measurements are were made using the a Victor 1420 Multilabel Counter (Wallac Oy) and the percent inhibition of each candidate compound is was calculated using the following equation: [formula] where “background” refers to wells that are were not coated with anti-LFA-1 antibody.

[2] = tested on: adherence of JY-8 cells (expressing LFA-1) to immobilized ICAM-1; experiment: ICAM-1/JY-8 Cell Adhesion Assay; assay type: cell-based, human
Method: ICAM-1/JT-8 Cell Adhesion Assay
For measurment measurement of inhibotory inhibitory activity in the cell-based adhesion assay, 96-well microtiter plates are were coated with 70 μL of recombinat recombinant ICAM-1/Ig (ICOS Corporation) at a concentration of 5 μg/mL in D-PBS w/o without Ca^++ or Mg++ or Mg^++ overnight at 4° C. The wells are were then washed twice with D-PBS and blocked by addition of 200 μL of D-PBS, 5% fish skin gelatin by incubation for 1 hour at room temperature. […] The percent inhibition of a candidate compound at a given concentration is was calculated using the following equation: [formula] and these concentration/inhibition data are were used to generate does response curves, from which IC50 values are were derived.

[3] = tested on: adhesion of JY-8 cells (expressing LFA-1) to immobilized ICAM-3; experiment: ICAM-3/JY-8 Cell Adhesion Assay; assay type: cell-based, human; conditions: 0.6 μM compound, JY-8 cells on immobilized ICAM-3/Ig; for inhibition at 0.6 µM: Homo sapiens
Method: As such, it is expected that these compounds should block the interaction of LFA-1 with other CAM's. […] Compounds of the present invention may be evaluated for their ability to block the adhesion of JY-8 cells (a human EBV-transformed B cell line expressing LFA-1 on its surface) to immobilized ICAM-3, as follows:
ICAM-3/JY-8 Cell Adhesion Assay
For measurement of inhibitory activity in the cell-based adhesion assay, 96-well microtiter plates are were coated with 50 μL of recombinant ICAM-3/Ig (ICOS Corporation) at a concentration of 10 μg/mL in D-PBS w/o without Ca^++ or Mg^++ overnight at 4° C. The wells are were then washed twice with D-PBS, blocked by addition of 100 μL of D-PBS, 1% bovine serum albumin (BSA) by incubation for 1 hour at room temperature, and washed once with RPMI-1640/5% heat-inactivated fetal bovine serum (adhesion buffer). Dilutions of compounds to be assayed for ICAM-3/LFA-1 antagonistic activity are were prepared in adhesion buffer from 10 mM stock solutions in DMSO and 100 μL are were added to duplicate wells. JY-8 cells (a human EBV-transformed B cell line expressing LFA-1 on its surface; 100 μL at 0.75×10^6 cells/ml mL in adhesion buffer) are were then added to the wells. Microtiter plates are were incubated for 30 minutes at room temperature; the adherent cells are were then fixed with 50 μL of 14% glutaraldehyde/D-PBS and were incubated for an additional 90 minutes. The wells are were washed gently with dH2O; 50 μL of dH2O is was added, following followed by 50 μL of 1% crystal violet. After 5 minutes the plates are were washed 3× times with dH2O; 75 μL of dH2O and 225 μL of 95% EtOH are were added to each well to extract the crystal violet from the cells. Absorbance is was measured at […] in an ELISA plate reader. The percent inhibition of a candidate compound is was calculated using the following equation. [formula]

[4] = Homo sapiens, JY-8, JY-8 cells on immobilized ICAM-1/Ig
[5] = JY-8 cells on immobilized ICAM-1/Ig

SMILES | inhibition at 4 µM [1] | IC50 [2, 4] | IC50 ([2]; Homo sapiens, JY-8 cells on immobilized ICAM-1/Ig) | % inhibition @ 4 μM [1] | IC50 [2, 5] | inhibition at 0.6 µM [3] | % inhibition @ 0.6 μM [3]
CC(=O)N1CCN(C(=O)/C=C/c2ccc(Sc3ccc(Cl)cc3Cl)c(Cl)c2)CC1 [Example 9, (2,4-Dichlorophenyl)[2-chloro-4-(E-((4-acetylpiperazin-1-yl)carbonyl)ethenyl)phenyl]sulfide] | 93% | 130 nM |  |  |  | 100% | 
O=C(/C=C/c1ccc(Sc2ccccc2Br)c(Cl)c1)N1CCC(O)CC1 [Example 18] |  |  |  | 86% | 130 nM |  | 100%
O=C(/C=C/c1ccc(Sc2ccccc2Br)c(Cl)c1)N1CCOCC1 [Example 12] |  |  |  | 90% | 360 nM |  | 100%
Cc1ccccc1Sc1ccc(/C=C/C(=O)NCCCN2CCCC2=O)cc1C(F)(F)F [Example 30, (2-Methylphenyl)[2-trifluoromethyl-4-(E-((3-(2-oxopyrrolidin-1-yl)propylamino)carbonyl)ethenyl)phenyl]sulfide] | 93% | 250 nM |  |  |  | 100% | 
O=C(/C=C/c1ccc(Sc2ccccc2Br)c(Cl)c1)N1CCCC(CO)C1 (stereo not drawn) [Example 15, (2-(Bromophenl)[2-chloro-4-(E-((3-hydroxymethyl)piperidin-1-yl)carbonyl)ethenyl)phenyl]sulfide] |  |  |  | 88% | 140 nM |  | 100%
CC(=O)N1CCN(C(=O)/C=C/c2ccc(Sc3ccccc3C)c(C(F)(F)F)c2)CC1 [Example 26] |  |  |  | 94% | 110 nM |  | 100%
O=C(/C=C/c1ccc(Sc2ccccc2Br)c(Cl)c1)N1CCCCC1CO (stereo not drawn) [Example 16, (2-(Bromophenyl)[2-chloro-4-(E-((2-hydroxymethyl)piperidin-1-yl)carbonyl)ethenyl)phenyl]sulfide] |  |  |  | 86% | 300 nM |  | 100%
Cc1ccccc1Sc1ccc(/C=C/C(=O)N2CCOCC2)cc1C(F)(F)F [Example 27, (2-Methylphenyl)[2-trifluoromethyl-4-(E-((1-morpholinyl)carbonyl)ethenyl)phenyl]sulfide] |  |  |  | 94% | 160 nM |  | 100%
CC(=O)NC1CCN(C(=O)/C=C/c2ccc(Sc3ccccc3Br)c(Cl)c2)C1 (stereo not drawn) [Example 17] |  |  |  | 84% | 5800 nM |  | 100%

Further lines, with some results ahead:

inhibition at 4 µM [1] | IC50 [2, 4] | IC50 ([2]; Homo sapiens, JY-8 cells on immobilized ICAM-1/Ig) | % inhibition @ 4 μM [1] | IC50 [2, 5] | SMILES | inhibition at 0.6 µM [3] | % inhibition @ 0.6 μM [3]
95% |  | 30 nM |  |  | CC(=O)N1CCN(C(=O)/C=C/c2ccc(Sc3ccccc3C=O)c([N+](=O)[O-])c2)CC1 [Example 60, (2-Formylphenyl)[2-nitro-4-(E-((4-acetylpiperazin-1-yl)carbonyl)ethenyl)phenyl]sulfide] | 100% | 
88% | 50 nM |  |  |  | CC(=O)N1CCN(C(=O)/C=C/c2ccc(Sc3ccccc3C)c([N+](=O)[O-])c2)CC1 [Example 45, (2-Methylphenyl)[2-nitro-4-(E-((4-acetylpiperazin-1-yl)carbonyl)ethenyl)phenyl]sulfide] | 100% | 
93% | 20 nM |  |  |  | CCc1ccccc1Sc1ccc(/C=C/C(=O)N2CCN(C(C)=O)CC2)cc1[N+](=O)[O-] [Example 49, (2-Ethylphenyl)[2-nitro-4-(E-((4-acetylpiperazin-1-yl)carbonyl)ethenyl)phenyl]sulfide] | 100% | 
87% | 60 nM |  |  |  | CC(=O)N1CCN(C(=O)/C=C/c2ccc(Sc3ccccc3Cl)c([N+](=O)[O-])c2)CC1 [Example 46, (2-Chlorophenyl)[2-nitro-4-(E-((4-acetylpiperazin-1-yl)carbonyl)ethenyl)phenyl]sulfide] | 100% | 
89% | 430 nM |  |  |  | CC(=O)N1CCN(C(=O)/C=C/c2ccc(Sc3ccc(Br)cc3)c([N+](=O)[O-])c2)CC1 [Example 35, (4-Bromophenyl)[2-nitro-4-(E-((4-acetylpiperazin-1-yl)carbonyl)ethenyl)phenyl]sulfide] | 100% | 
83% | 110 nM |  |  |  | CCN(CC)C(=O)N1CCN(C(=O)/C=C/c2ccc(Sc3ccc(Cl)cc3Cl)c([N+](=O)[O-])c2)CC1 [Example 41, (2,4-Dichlorophenyl)[2-nitro-4-(E-((4-(diethylaminocarbonyl)piperazin-1-yl)carbonyl)ethenyl)phenyl]sulfide] | 100% | 
